Experimental data reported in patent US20240390340A1 (INCYTE CORPORATION, priority 2023, published 2024).

How the values were obtained:
KRAS G12V = KRAS G12V (Homo sapiens, UniProt P01116, G12V); experiment: GDP-GTP exchange assay (bodipy-GDP/GppNHp, SOS1), KRAS G12V; assay type: biochemical; conditions: Table H, column G12V; for compounds isolated as several atropisomers/diastereoisomers the value for the most potent isomer is quoted; read-out: KRAS G12V exchange assay IC50
Caco-2 cells = experiment: Caco2 assay (Papp A-B); assay type: in vitro ADME; conditions: test compound 50 μM, 120 min, 37° C.
Method in brief: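 Caco-2 monolayers grown 22–25 days on Transwells (TEER 300 Ω·cm^2) were dosed apically with 50 μM compound in HBSS; basolateral receiver held HBSS with 4% BSA. Incubation 120 min at 37° C, 5% CO2; donor and receiver samples quantified by LCMS and Papp A-B calculated from receiver-side cumulative flux slope.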

KRAS G12D = KRAS G12D (Homo sapiens, UniProt P01116, G12D); experiment: GDP-GTP exchange assay (bodipy-GDP/GppNHp, SOS1), KRAS G12D; assay type: biochemical; conditions: Table H, column G12D; for compounds isolated as several atropisomers/diastereoisomers the value for the most potent isomer is quoted; read-out: KRAS G12D exchange assay IC50
Sequence of KRAS G12D (P01116 1-188 isoform P01116-2 G12D): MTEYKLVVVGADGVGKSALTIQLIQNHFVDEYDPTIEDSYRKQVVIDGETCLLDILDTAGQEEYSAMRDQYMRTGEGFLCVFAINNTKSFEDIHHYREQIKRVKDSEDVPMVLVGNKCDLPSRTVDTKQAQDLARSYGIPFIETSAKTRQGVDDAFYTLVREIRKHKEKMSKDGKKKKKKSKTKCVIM

Sequence of KRAS G12V (P01116 1-188 isoform P01116-2 G12V): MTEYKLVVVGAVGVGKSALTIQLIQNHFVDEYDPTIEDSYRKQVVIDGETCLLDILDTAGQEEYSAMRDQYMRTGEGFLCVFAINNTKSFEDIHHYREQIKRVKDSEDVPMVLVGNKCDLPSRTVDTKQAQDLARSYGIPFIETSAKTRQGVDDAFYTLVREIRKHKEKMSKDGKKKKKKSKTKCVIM

Row | Compound | IC50 (KRAS G12V) | Caco-2 (Caco-2 cells) | IC50 (KRAS G12D)
1 | Cc1nc2c(F)c(-c3cccc(Cl)c3Cl)c(CCC#N)cc2c2c1cc([C@H]1C[C@H](n3cc(C45CC(C4)C5)nn3)CN1C(=O)C1CC1)n2[C@H]1[C@H]2CN[C@@H]1C2 [Example 68, 3-(2-((2R,4S)-4-(4-(Bicyclo[1.1.1]pentan-1-yl)-1H-1,2,3-triazol-1-yl)-1-(cyclopropanecarbonyl)pyrrolidin-2-yl)-1-((1R,4R,5S)-2-azabicyclo[2.1.1]hexan-5-yl)-7-(2,3-dichlorophenyl)-6-fluoro-4-methyl-1H-pyrrolo[3,2-c]quinolin-8-yl)propanenitrile] | ≤ 100 nM | + (a Caco-2 value of ≤0.5) | ≤ 100 nM
2 | COC1CCC(O[C@H]2C[C@H](c3cc4c(C)nc5c(F)c(-c6cccc(Cl)c6Cl)c(CCC#N)cc5c4n3[C@H]3[C@H]4CN[C@@H]3C4)N(C(=O)C3CC3)C2)C1 (stereo partly drawn) [Example 23] | ≤ 100 nM | ++ (a Caco-2 value of >0.5 but ≤1) | ≤ 100 nM
3 | COc1ncccc1O[C@H]1C[C@H](c2cc3c(C)nc4c(F)c(-c5cccc(Cl)c5Cl)c(CCC#N)cc4c3n2[C@H]2[C@H]3CN[C@@H]2C3)N(C(=O)C2CC2)[C@@H]1C [Example 49, 3-(1-((1R,4R,5S)-2-Azabicyclo[2.1.1]hexan-5-yl)-2-((2R,4S,5R)-1-(cyclopropanecarbonyl)-4-((2-methoxypyridin-3-yl)oxy)-5-methylpyrrolidin-2-yl)-7-(2,3-dichlorophenyl)-6-fluoro-4-methyl-1H-pyrrolo[3,2-c]quinolin-8-yl)propanenitrile] | ≤ 100 nM | +++ (a Caco-2 value of >1) | ≤ 100 nM
4 | Cc1nc2c(F)c(-c3cccc(Cl)c3Cl)c(CCC#N)cc2c2c1cc([C@H]1C[C@H](OC3CCC(C#N)C3)CN1C(=O)C1CC1)n2[C@H]1[C@H]2CN[C@@H]1C2 (stereo partly drawn) [Example 24] | ≤ 100 nM | + (a Caco-2 value of ≤0.5) | ≤ 100 nM
5 | COc1cc(O[C@H]2C[C@H](c3cc4c(C)nc5c(F)c(-c6cccc(Cl)c6Cl)c(CCC#N)cc5c4n3[C@H]3[C@H]4CN[C@@H]3C4)N(C(=O)C3CC3)[C@@H]2C)ccn1 [Example 41, 3-(1-((1R,4R,5S)-2-Azabicyclo[2.1.1]hexan-5-yl)-2-((2R,4S,5R)-1-(cyclopropanecarbonyl)-4-((2-methoxypyridin-4-yl)oxy)-5-methylpyrrolidin-2-yl)-7-(2,3-dichlorophenyl)-6-fluoro-4-methyl-1H-pyrrolo[3,2-c]quinolin-8-yl)propanenitrile] | ≤ 100 nM | ++ (a Caco-2 value of >0.5 but ≤1) | ≤ 100 nM
6 | Cc1nc2c(F)c(-c3cccc(Cl)c3Cl)c(CCC#N)cc2c2c1cc([C@H]1C[C@H](OCc3noc4ccccc34)CN1C(=O)C1CC1)n2[C@H]1[C@H]2CN[C@@H]1C2 [Example 6] | ≤ 100 nM | + (a Caco-2 value of ≤0.5) | ≤ 100 nM
7 | Cc1nonc1CO[C@H]1C[C@H](c2cc3c(C)nc4c(F)c(-c5cccc(Cl)c5Cl)c(CCC#N)cc4c3n2[C@H]2[C@H]3CN[C@@H]2C3)N(C(=O)C2CC2)C1 [Example 33] | ≤ 100 nM | + (a Caco-2 value of ≤0.5) | ≤ 100 nM
8 | C[C@@H]1[C@@H](Oc2c(F)ccnc2Cl)C[C@H](c2cc3c([C@@H](C)O)nc4c(F)c(-c5cccc(Cl)c5Cl)c(CCC#N)cc4c3n2[C@H]2[C@H]3CN[C@@H]2C3)N1C(=O)C1CC1 [Example 64, 3-(1-((1R,4R,5S)-2-Azabicyclo[2.1.1]hexan-5-yl)-2-((2R,4S,5R)-4-((2-chloro-4-fluoropyridin-3-yl)oxy)-1-(cyclopropanecarbonyl)-5-methylpyrrolidin-2-yl)-7-(2,3-dichlorophenyl)-6-fluoro-4-((R)-1-hydroxyethyl)-1H-pyrrolo[3,2-c]quinolin-8-yl)propanenitrile] | ≤ 100 nM | +++ (a Caco-2 value of >1) | ≤ 100 nM
9 | Cc1nc2c(F)c(-c3cccc(Cl)c3Cl)c(CCC#N)cc2c2c1cc([C@H]1C[C@H](OC3CCOCC3)CN1C(=O)C1CC1)n2[C@H]1[C@H]2CN[C@@H]1C2 [Example 22] | ≤ 100 nM | + (a Caco-2 value of ≤0.5) | ≤ 100 nM
10 | Cc1csnc1CO[C@H]1C[C@H](c2cc3c(-c4ccc(C(C)(C)O)nc4)nc4c(F)c(-c5cccc(Cl)c5Cl)c(CCC#N)cc4c3n2[C@H]2[C@H]3CN[C@@H]2C3)N(C(=O)C2CC2)C1 [Example 25] | ≤ 100 nM | + (a Caco-2 value of ≤0.5) | ≤ 100 nM

The remaining lines, values ahead:

Row | IC50 (KRAS G12V) | Caco-2 (Caco-2 cells) | IC50 (KRAS G12D) | Compound
11 | ≤ 100 nM | ++ (a Caco-2 value of >0.5 but ≤1) | ≤ 100 nM | Cc1cc(F)cc(O[C@H]2C[C@H](c3cc4c([C@@H](C)O)nc5c(F)c(-c6cccc(Cl)c6Cl)c(CCC#N)cc5c4n3[C@H]3[C@H]4CN[C@@H]3C4)N(C(=O)C3CC3)C2)n1 [Example 62, 3-(1-((1R,4R,5S)-2-Azabicyclo[2.1.1]hexan-5-yl)-2-((2R,4S)-1-(cyclopropanecarbonyl)-4-((4-fluoro-6-methylpyridin-2-yl)oxy)pyrrolidin-2-yl)-7-(2,3-dichlorophenyl)-6-fluoro-4-((R)-1-hydroxyethyl)-1H-pyrrolo[3,2-c]quinolin-8-yl)propanenitrile]
12 | ≤ 100 nM | + (a Caco-2 value of ≤0.5) | ≤ 100 nM | Cc1nc2c(F)c(-c3cccc(Cl)c3Cl)c(CCC#N)cc2c2c1cc([C@H]1C[C@H](Oc3cccc(C#N)c3)CN1C(=O)C1CC1)n2[C@H]1[C@H]2CN[C@@H]1C2 [Example 45, 3-(((3S,5R)-5-(1-((1R,4R,5S)-2-Azabicyclo[2.1.1]hexan-5-yl)-8-(2-cyanoethyl)-7-(2,3-dichlorophenyl)-6-fluoro-4-methyl-1H-pyrrolo[3,2-c]quinolin-2-yl)-1-(cyclopropanecarbonyl)pyrrolidin-3-yl)oxy)benzonitrile]
13 | ≤ 100 nM | + (a Caco-2 value of ≤0.5) | ≤ 100 nM | Cc1nc2c(F)c(-c3cccc(Cl)c3Cl)c(CCC#N)cc2c2c1cc([C@H]1C[C@H](OCc3cnsn3)CN1C(=O)C1CC1)n2[C@H]1[C@H]2CN[C@@H]1C2 [Example 13]
14 | ≤ 100 nM | + (a Caco-2 value of ≤0.5) | ≤ 100 nM | Cc1nc2c(F)c(-c3cccc(Cl)c3Cl)c(CCC#N)cc2c2c1cc([C@H]1C[C@H](OCc3ccc(F)cc3C#N)CN1C(=O)C1CC1)n2[C@H]1[C@H]2CN[C@@H]1C2 [Example 17]
15 | ≤ 100 nM | +++ (a Caco-2 value of >1) | ≤ 100 nM | Cc1cc(CO[C@H]2C[C@H](c3cc4c(C)nc5c(F)c(-c6cccc(Cl)c6Cl)c(CCC#N)cc5c4n3[C@H]3[C@H]4CN[C@@H]3C4)N(C(=O)C3CC3)C2)ns1 [Example 15]
16 | ≤ 100 nM | + (a Caco-2 value of ≤0.5) | ≤ 100 nM | Cc1cccc(F)c1CO[C@H]1C[C@H](c2cc3c(C)nc4c(F)c(-c5cccc(Cl)c5Cl)c(CCC#N)cc4c3n2[C@H]2[C@H]3CN[C@@H]2C3)N(C(=O)C2CC2)C1 [Example 19]
17 | ≤ 100 nM | ++ (a Caco-2 value of >0.5 but ≤1) | ≤ 100 nM | COc1ncccc1CO[C@H]1C[C@H](c2cc3c(C)nc4c(F)c(-c5cccc(Cl)c5Cl)c(CCC#N)cc4c3n2[C@H]2[C@H]3CN[C@@H]2C3)N(C(=O)C2CC2)C1 [Example 27]
18 | ≤ 100 nM | +++ (a Caco-2 value of >1) | ≤ 100 nM | Cc1nc2c(F)c(-c3cccc(Cl)c3Cl)c(CCC#N)cc2c2c1cc([C@H]1C[C@H](Oc3ccccn3)CN1C(=O)C1CC1)n2[C@H]1[C@H]2CN[C@@H]1C2 [Example 5, 3-(1-((1R,4R,5S)-2-Azabicyclo[2.1.1]hexan-5-yl)-2-((2R,4S)-1-(cyclopropanecarbonyl)-4-(pyridin-2-yloxy)pyrrolidin-2-yl)-7-(2,3-dichlorophenyl)-6-fluoro-4-methyl-1H-pyrrolo[3,2-c]quinolin-8-yl)propanenitrile]
19 | ≤ 100 nM | + (a Caco-2 value of ≤0.5) | ≤ 100 nM | Cc1nc2c(F)c(-c3cccc(Cl)c3Cl)c(CCC#N)cc2c2c1cc([C@H]1C[C@H](Oc3cnn(C)c3C(F)F)CN1C(=O)C1CC1)n2[C@H]1[C@H]2CN[C@@H]1C2 [Example 47, 3-(1-((1R,4R,5S)-2-Azabicyclo[2.1.1]hexan-5-yl)-2-((2R,4S)-1-(cyclopropanecarbonyl)-4-((5-(difluoromethyl)-1-methyl-1H-pyrazol-4-yl)oxy)pyrrolidin-2-yl)-7-(2,3-dichlorophenyl)-6-fluoro-4-methyl-1H-pyrrolo[3,2-c]quinolin-8-yl)propanenitrile]
20 | ≤ 100 nM | + (a Caco-2 value of ≤0.5) | ≤ 100 nM | Cc1nc2c(F)c(-c3cccc(Cl)c3Cl)c(CCC#N)cc2c2c1cc([C@H]1C[C@H](Oc3cccnc3OC(F)F)CN1C(=O)C1CC1)n2[C@H]1[C@H]2CN[C@@H]1C2 [Example 37, 3-(1-((1R,4R,5S)-2-Azabicyclo[2.1.1]hexan-5-yl)-2-((2R,4S)-1-(cyclopropanecarbonyl)-4-((2-(difluoromethoxy)pyridin-3-yl)oxy)pyrrolidin-2-yl)-7-(2,3-dichlorophenyl)-6-fluoro-4-methyl-1H-pyrrolo[3,2-c]quinolin-8-yl)propanenitrile]
21 | ≤ 100 nM | + (a Caco-2 value of ≤0.5) | ≤ 100 nM | COc1cc(O[C@H]2C[C@H](c3cc4c(C)nc5c(F)c(-c6cccc(Cl)c6Cl)c(CCC#N)cc5c4n3[C@H]3[C@H]4CN[C@@H]3C4)N(C(=O)C3CC3)C2)c(F)cn1 [Example 43, 3-(1-((1R,4R,5S)-2-Azabicyclo[2.1.1]hexan-5-yl)-2-((2R,4S)-1-(cyclopropanecarbonyl)-4-((5-fluoro-2-methoxypyridin-4-yl)oxy)pyrrolidin-2-yl)-7-(2,3-dichlorophenyl)-6-fluoro-4-methyl-1H-pyrrolo[3,2-c]quinolin-8-yl)propanenitrile]
